# US10329294B2, “Pyrazolopyrimidine inhibitors of IRAK4 activity” (MERCK SHARP & DOHME CORP., priority 2015, dated 2019)
# Where a name gives a salt, the structure may show the parent alone.
# Biological target: IRAK4 (Homo sapiens (Human), UniProt Q9NWZ3)
# Test: IRAK4 Kinase Assay
# Format: biochemical
# Conditions: IMAP fluorescence polarization, 0.5 nM GST tagged IRAK4, 100 μM ATP, 30 minutes at 25° C.; read-out: IRAK4 IC50
# Method: The kinase activity of IRAK4 is determined by its ability to catalyze the phosphorylation of a fluorescent polypeptide substrate. The extent of phosphorylation is measured using the IMAP technology (Molecular Devices) where the phosphorylated fluorescent substrate binds to the large M(III)-based nanoparticles which reduces the rotational speed of the substrate and thus increases its fluorescent polarization (FP).
# 20 μL reaction mixture contains 10 mM TriHCl, pH 7.2, 0.5 nM GST tagged IRAK4 (SignalChem), 100 nM fluorescent peptide substrate (RP7030, Molecular Devices), 100 μM ATP, 1 mM DDT, 1 mM MgCl2, and 0.01% Tween 20. The reaction is initiated by the addition of ATP. After incubation for 30 minutes at 25° C., 60 μL of Progressive IMAP Reagent (Molecular Devices) is added to stop the reaction. Change in RP7030's FP is determined by a FP reader (Analyst HT, LJL BioSystems).
# Sequence of IRAK4 (Q9NWZ3 whole entry): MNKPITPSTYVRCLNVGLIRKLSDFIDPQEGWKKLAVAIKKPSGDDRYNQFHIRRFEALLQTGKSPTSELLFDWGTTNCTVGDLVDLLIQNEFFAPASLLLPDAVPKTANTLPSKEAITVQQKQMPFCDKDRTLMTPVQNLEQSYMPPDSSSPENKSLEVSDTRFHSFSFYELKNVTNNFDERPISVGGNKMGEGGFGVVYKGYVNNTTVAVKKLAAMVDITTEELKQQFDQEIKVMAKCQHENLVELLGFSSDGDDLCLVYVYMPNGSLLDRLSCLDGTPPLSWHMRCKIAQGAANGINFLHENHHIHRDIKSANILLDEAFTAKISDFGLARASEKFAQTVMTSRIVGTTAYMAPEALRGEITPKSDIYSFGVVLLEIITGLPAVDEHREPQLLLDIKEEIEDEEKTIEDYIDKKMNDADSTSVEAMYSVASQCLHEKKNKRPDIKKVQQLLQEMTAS
row,SMILES,IC50 [nM]
1,"Cn1cc(NC(=O)c2cnn3ccc(N4C[C@@H]5CNC[C@H]4C5)nc23)c(C(F)(F)F)n1 (single isomer, unassigned) [Example 83, 5-[(1S,5R)- or (1R,5S)-3,6-diazabicyclo[3.2.1]oct-6-yl]-N-[1-methyl-3-(trifluoromethyl)-1H-pyrazol-4-yl]pyrazolo[1,5-a]pyrimidine-3-carboxamide]",33
2,"O=C(Nc1ccccc1Cl)c1cnn2ccc(N[C@@H]3CCCC[C@@H]3O)nc12 [Example 194, N-(2-chlorophenyl)-5-{[(1R,2S)-2-hydroxycyclohexyl]amino} pyrazolo[1,5-a]pyrimidine-3-carboxamide]",1750
3,"O=C(Nc1ccccc1Br)c1cnn2ccc(N3CC4CCC3CN4)nc12 (stereo not drawn) [Example 112, N-(2-bromophenyl)-5-(2,5-diazabicyclo[2.2.2]oct-2-yl)pyrazolo[1,5-a]pyrimidine-3-carboxamide trifluoroacetate]",955
4,"Cn1cc(NC(=O)c2cnn3ccc(NC4CCCCNC4)nc23)c(C(F)F)n1 (stereo not drawn) [Example 99, 5-(azepan-3-ylamino)-N-[3-(difluoromethyl)-1-methyl-1H-pyrazol-4-yl]pyrazolo[1,5-a]pyrimidine-3-carboxamide]",3
5,"Cn1cc(NC(=O)c2cnn3ccc(N4C[C@H]5CN[C@H](C5)C4)nc23)c(C(F)(F)F)n1 (single isomer, unassigned) [Example 225, 5-[(1S,5S)- or (1R,5R)-3,6-diazabicyclo[3.2.1]oct-3-yl]-N-[1-methyl-3-(trifluoromethyl)-1H-pyrazol-4-yl]pyrazolo[1,5-a]pyrimidine-3-carboxamide]",310
6,"Cn1cc(NC(=O)c2cnn3ccc(N4CC5CCC4CN5)nc23)c(C(F)F)n1 (stereo not drawn) [Example 96, 5-(2,5-diazabicyclo[2.2.2]oct-2-yl)-N-[3-(difluoromethyl)-1-methyl-1H-pyrazol-4-yl]pyrazolo[1,5-a]pyrimidine-3-carboxamide trifluoroacetate]",2
7,"Cn1cc(NC(=O)c2cnn3ccc(N[C@H]4CNCCC4(F)F)nc23)c(C(F)(F)F)n1 (single isomer, unassigned) [Example 243, 5-[(R or S)-(4,4-difluoropiperidin-3-yl)amino]-N-[1-methyl-3-(trifluoromethyl)-1H-pyrazol-4-yl]pyrazolo[1,5-a]pyrimidine-3-carboxamide trifluoroacetate]",0.5
8,"N[C@H]1CCCC[C@H]1Nc1ccn2ncc(C(=O)Nc3cn(CC(F)F)nc3C(F)(F)F)c2n1 [Example 292, 5-{[(1R,2S)-2-aminocyclohexyl]amino}-N-[1-(2,2-difluoroethyl)-3-(trifluoromethyl)-1H-pyrazol-4-yl]pyrazolo[1,5-a]pyrimidine-3-carboxamide trifluoroacetate]",0.8
9,"Cn1cc(NC(=O)c2cnn3ccc(N4[C@@H]5CC[C@H]4[C@@H]4CC[C@H]5N4)nc23)c(C(F)(F)F)n1 [Example 92, 5-[9,10-diazatricyclo[4.2.1.1~2,5~]dec-9-yl]-N-]1-methyl-3-(trifluoromethyl)-1H-pyrazol-4-yl]pyrazolo[1,5-a]pyrimidine-3-carboxamide trifluoroacetate]",115
10,"O=C(Nc1ccccc1I)c1cnn2ccc(N3CCNCC4(CC4)C3)nc12 [Example 100, 5-(5,8-diazaspiro[2.6]non-5-yl)-N-(2-iodophenyl)pyrazolo[1,5-a]pyrimidine-3-carboxamide trifluoroacetate]",8080
11,"Cn1cc(NC(=O)c2cnn3ccc(N4C5CNCC4C5)nc23)c(C(F)(F)F)n1 [Example 214, 5-(3,6-diazabicyclo[3.1.1]hept-6-yl)-N-[1-methyl-3-(trifluoromethyl)-1H-pyrazol-4-yl]pyrazolo[1,5-a]pyrimidine-3-carboxamide]",38
12,"Cn1cc(NC(=O)c2cnn3ccc(N[C@@H]4CCCC(F)(F)[C@@H]4N)nc23)c(C#N)n1 [Example 126, 5-{[(1R,2R)-2-amino-3,3-difluorocyclohexyl]amino}-N-(3-cyano-1-methyl-1H-pyrazol-4-yl)pyrazolo[1,5-a]pyrimidine-3-carboxamide trifluoroacetate]",70
